Source: ChEMBL document CHEMBL1158870, “Antitumor agents. 180. Chemical Studies and cytotoxic evaluation of cumingianosides and cumindysoside A, antileukemic triterpene glucosides with a 14,18-cycloapotirucallane skeleton” (1997)

How the values were obtained:
Leukemia cell = experiment: Cytotoxicity against human Leukemia cells by SRB assay; assay type: functional
EKVX = experiment: Cytotoxicity against human EKVX cells by SRB assay; assay type: functional
SK-MEL-2 = experiment: Cytotoxicity against human SK-MEL-2 cells by SRB assay; assay type: functional
HCT-15 = experiment: Cytotoxicity against human HCT15 cells by SRB assay; assay type: functional
SR = experiment: Cytotoxicity against human SR cells by SRB assay; assay type: functional
A549 = experiment: Cytotoxicity against human A549 cells by SRB assay; assay type: functional
U-251 = experiment: Cytotoxicity against human U251 cells by SRB assay; assay type: functional
SK-OV-3 = experiment: Cytotoxicity against human SKOV3 cells by SRB assay; assay type: functional
COLO 205 = experiment: Cytotoxicity against human COLO205 cells by SRB assay; assay type: functional
Malme-3M = experiment: Cytotoxicity against human MALME-3M cells by SRB assay; assay type: functional
[1] = Cytotoxicity against human Colon cancer cells by SRB assay; assay type: functional; conditions: Cancer cell lines
OVCAR-3 = experiment: Cytotoxicity against human OVCAR-3 cells by SRB assay; assay type: functional
UO-31 = experiment: Cytotoxicity against human UO31 cells by SRB assay; assay type: functional
SF-268 = experiment: Cytotoxicity against human SF268 cells by SRB assay; assay type: functional
MOLT-4 = experiment: Cytotoxicity against human MOLT4 cells by SRB assay; assay type: functional
LOX IMVI = experiment: Cytotoxicity against human LOXIMVI cells by SRB assay; assay type: functional
MDA-MB-231 = experiment: Cytotoxicity against human MDA-MB-231 cells by SRB assay; assay type: functional
[2] = Cytotoxicity against human breast cancer cells by SRB assay; assay type: functional; conditions: Cancer cell lines
[3] = Cytotoxicity against human CNS cancer cells by SRB assay; assay type: functional; conditions: Cancer cell lines
CCRF-CEM = experiment: Cytotoxicity against human CCRF-CEM cells by SRB assay; assay type: functional
[4] = Cytotoxicity against human 786-O cells by SRB assay; assay type: functional; conditions: 786-0
NSCLC = experiment: Cytotoxicity against human NSCLC cells by SRB assay; assay type: functional
CAKI-1 = experiment: Cytotoxicity against human Caki1 cells by SRB assay; assay type: functional
OVCAR-4 = experiment: Cytotoxicity against human OVCAR4 cells by SRB assay; assay type: functional
UACC-62 = experiment: Cytotoxicity against human UACC62 cells by SRB assay; assay type: functional
NCI-H23 = experiment: Cytotoxicity against human NCI-H23 cells by SRB assay; assay type: functional
[5] = Cytotoxicity against human prostate cancer cells by SRB assay; assay type: functional; conditions: Cancer cell lines
OVCAR-5 = experiment: Cytotoxicity against human OVCAR5 cells by SRB assay; assay type: functional
DU-145 = experiment: Cytotoxicity against human DU145 cells by SRB assay; assay type: functional
SK-MEL-28 = experiment: Cytotoxicity against human SK-MEL-28 cells by SRB assay; assay type: functional
UACC-257 = experiment: Cytotoxicity against human UACC257 cells by SRB assay; assay type: functional
HT-29 = experiment: Cytotoxicity against human HT29 cells by SRB assay; assay type: functional
HOP-92 = experiment: Cytotoxicity against human HOP92 cells by SRB assay; assay type: functional
A498 = experiment: Cytotoxicity against human A498 cells by SRB assay; assay type: functional
NCI-H460 = experiment: Cytotoxicity against human NCI-H460 cells by SRB assay; assay type: functional
[6] = Cytotoxicity against human ovarian cancer cells by SRB assay; assay type: functional; conditions: Cancer cell lines
NCI-H226 = experiment: Cytotoxicity against human NCI-H226 cells by SRB assay; assay type: functional
NCI-H522 = experiment: Cytotoxicity against human NCI-H522 cells by SRB assay; assay type: functional
[7] = Cytotoxicity against human Hs 578T cells by SRB assay; assay type: functional
RPMI-8226 = experiment: Cytotoxicity against human RPMI8226 cells by SRB assay; assay type: functional
M14 = experiment: Cytotoxicity against human M14 cells by SRB assay; assay type: functional
SK-MEL-5 = experiment: Cytotoxicity against human SK-MEL-5 cells by SRB assay; assay type: functional
SNB-75 = experiment: Cytotoxicity against human SNB75 cells by SRB assay; assay type: functional
NCI-H322M = experiment: Cytotoxicity against human NCI-H322M cells by SRB assay; assay type: functional
T47D = experiment: Cytotoxicity against human T47D cells by SRB assay; assay type: functional
HCC 2998 = experiment: Cytotoxicity against human HCC2998 cells by SRB assay; assay type: functional
BT-549 = experiment: Cytotoxicity against human BT549 cells by SRB assay; assay type: functional
HOP-62 = experiment: Cytotoxicity against human HOP62 cells by SRB assay; assay type: functional
HCT-116 = experiment: Cytotoxicity against human HCT116 cells by SRB assay; assay type: functional
[8] = Cytotoxicity against human MCF7/ADR cells by SRB assay; assay type: functional; conditions: NCI/ADR-RES
PC-3 = experiment: Cytotoxicity against human PC3 cells by SRB assay; assay type: functional
SN12C = experiment: Cytotoxicity against human SN12C cells by SRB assay; assay type: functional
[9] = Cytotoxicity against human renal cancer cells by SRB assay; assay type: functional; conditions: Cancer cell lines
SNB-19 = experiment: Cytotoxicity against human SNB19 cells by SRB assay; assay type: functional
IGROV-1 = experiment: Cytotoxicity against human IGROV1 cells by SRB assay; assay type: functional
SW-620 = experiment: Cytotoxicity against human SW620 cells by SRB assay; assay type: functional
MDA-MB-435 = experiment: Cytotoxicity against human MDA-MB-435 cells by SRB assay; assay type: functional
MCF7 = experiment: Cytotoxicity against human MCF7 cells by SRB assay; assay type: functional
RXF 393 = experiment: Cytotoxicity against human RXF393 cells by SRB assay; assay type: functional
SF-295 = experiment: Cytotoxicity against human SF295 cells by SRB assay; assay type: functional
MDA-N = experiment: Cytotoxicity against human MDA-N cells by SRB assay; assay type: functional
OVCAR-8 = experiment: Cytotoxicity against human OVCAR8 cells by SRB assay; assay type: functional
[10] = Cytotoxicity against human melanoma cells by SRB assay; assay type: functional; conditions: Melanoma cell
[11] = Cytotoxicity against human HL60(TB) cells by SRB assay; assay type: functional, HL-60(TB); conditions: HL-60
KM12 = experiment: Cytotoxicity against human KM12 cells by SRB assay; assay type: functional
K562 = experiment: Cytotoxicity against human K562 cells by SRB assay; assay type: functional
ACHN = experiment: Cytotoxicity against human ACHN cells by SRB assay; assay type: functional

Work on `CC(=O)OC[C@H]1O[C@@H](O[C@@H]2C[C@H]3C(C)(C)[C@H](OC(C)=O)CC[C@]3(C)[C@H]3CC[C@@]45C[C@H](O)C[C@H](C)[C@@H]4CC=C5[C@@]32C)[C@H](O)[C@@H](O)[C@@H]1O` yielded a TGI (Leukemia cell) of 7 µM, a GI50 (EKVX) of 7.08 µM and a GI50 (SK-MEL-2) of 2.45 µM. For the same molecule, the GI50 (HCT-15) was 8.91 µM, the TGI (HCT-15) was 22.3 µM and the GI50 (SR) was 1.82 µM. The GI50 (A549) was 4.79 µM, the GI50 (U-251) was 3.39 µM and the GI50 (SK-OV-3) was 6.03 µM. It also gave a GI50 (COLO 205) of 1.82 µM, a TGI (COLO 205) of 3.2 µM and a GI50 (Malme-3M) of 9.33 µM. For the same molecule, the TGI [1] was 8.8 µM, the GI50 (OVCAR-3) was 3.89 µM and the GI50 (UO-31) was 14.8 µM. For the same molecule, the GI50 (SF-268) was 4.07 µM, the GI50 (MOLT-4) was 2.14 µM and the GI50 (LOX IMVI) was 1.82 µM. It also gave a GI50 (MDA-MB-231) of 2.04 µM, a TGI [2] of 17.9 µM and a TGI [3] of 15 µM. For the same molecule, the GI50 (CCRF-CEM) was 2.14 µM, the GI50 [4] was 4.37 µM and the TGI (NSCLC) was 18.1 µM. The GI50 (CAKI-1) was 9.55 µM, the GI50 (OVCAR-4) was 4.37 µM and the GI50 (UACC-62) was 5.25 µM. For the same molecule, the GI50 (NCI-H23) was 3.89 µM, the TGI [5] was 16.7 µM and the GI50 (OVCAR-5) was 2.34 µM. It also gave a GI50 (DU-145) of 10.5 µM, a GI50 (SK-MEL-28) of 8.32 µM and a GI50 (UACC-257) of 3.39 µM. It also gave a GI50 (HT-29) of 1.7 µM, a TGI (HT-29) of 3.3 µM and a GI50 (HOP-92) of 4.9 µM. For the same molecule, the GI50 (A498) was 14.1 µM, the GI50 (NCI-H460) was 3.31 µM and the TGI [6] was 13.5 µM. For the same molecule, the GI50 (NCI-H226) was 4.9 µM, the GI50 (NCI-H522) was 3.09 µM and the GI50 [7] was 4.07 µM. It also gave a GI50 (RPMI-8226) of 2.82 µM, a GI50 (M14) of 3.89 µM and a GI50 (SK-MEL-5) of 3.89 µM. For the same molecule, the GI50 (SNB-75) was 3.72 µM, the GI50 (NCI-H322M) was 6.61 µM and the GI50 (T47D) was 4.37 µM. It also gave a GI50 (HCC 2998) of 2.09 µM, a TGI (HCC 2998) of 3.8 µM and a GI50 (BT-549) of 11 µM. For the same molecule, the GI50 (HOP-62) was 11.2 µM, the GI50 (HCT-116) was 1.78 µM and the TGI (HCT-116) was 3.5 µM. The GI50 [8] was 15.1 µM, the GI50 (PC-3) was 3.16 µM and the GI50 (SN12C) was 3.98 µM. The TGI [9] was 18.8 µM, the GI50 (SNB-19) was 3.89 µM and the GI50 (IGROV-1) was 3.16 µM. It also gave a GI50 (SW-620) of 4.57 µM, a TGI (SW-620) of 18.1 µM and a GI50 (MDA-MB-435) of 3.72 µM. It also gave a GI50 (MCF7) of 4.47 µM, a GI50 (RXF 393) of 2.63 µM and a GI50 (SF-295) of 3.89 µM. It also gave a GI50 (MDA-N) of 4.27 µM, a GI50 (OVCAR-8) of 4.47 µM and a TGI [10] of 14.4 µM. The GI50 [11] was 2.09 µM, the GI50 (KM12) was 2.4 µM and the TGI (KM12) was 7.6 µM. It also gave a GI50 (K562) of 2.95 µM and a GI50 (ACHN) of 5.13 µM.
